# Patent US12048683B2, “Kaempferol analog-containing composition” (OTSUKA PHARMACEUTICAL CO., LTD., priority 2017, dated 2024)
# How the values were obtained:
# healthy male adults = experiment: Effect on performance in 400 m run; assay type: in vivo, human; details: single ingestion, 10 mg aglycone equivalent, 3 hours before run; placebo group −0.11 seconds
# Procedure: A two-group and two-phase crossover study (single ingestion) was conducted for 13 healthy male adults. In the study, a kaempferol-containing capsule-shaped food (SNR 14) wherein the aglycone equivalent value is 10 mg; and a placebo capsule-shaped food: Placebo (kaempferol free) were used as test foods. Three hours after taking the test food, the subjects sprinted 400 m, and sprinted 400 m again after a 90 minute interval. Respiratory rate and heart rate were monitored during the sprint. The expiratory mouth pressure was measured by the maximum mouth pressure method, before and after the 400 m runs, using an electronic spirometer, autospyro (Minato Medical Science Co., Ltd.). The subjects inhaled to the limit after three deep breaths in a standing position and then exhaled with full force into the mouthpiece for measurement while preventing air leakage from the nose to determine expiratory mouth pressure.
# healthy adult males = experiment: Incremental loading exercise test with bicycle; assay type: in vivo, human; details: compared with no intake of kaempferol
# Procedure: For 25 healthy adult males, 3 dosages of kaempferol-containing cookie-shaped foods (containing 2.5 mg, 10 mg, or 25 mg of kaempferol, respectively) and a placebo cookie-shaped food (kaempferol-free) were used as test foods, and a once-a-day ingestion for consecutive 8 days were repeated four times by the crossover method. 3 hours after a test food ingestion on day 1 (Single ingestion) and on day 8 (Consecutive ingestion), an incremental loading exercise with bicycle was performed while sampling the exhaled gas to determine the oxygen consumption. The Heart rate and the rating of perceived exertion were monitored during exercise. Dynamic/kinetic visual acuity was measured before and after the exercise. Details of each endpoint are given below. Oxygen consumption (VO2) (mL/min/kg) was calculated from the difference between the amount of oxygen in the inhaled gas (atmosphere) and the amount of oxygen in the exhaled gas. When a weight of the pedal approaches a subject's limit during incremental loading exercise with bicycle, a heart rate (HR) is maximized. The increase in heart rate from the resting heart rate to the maximum heart rate was defined as 100% of exercise intensity, and the oxygen consumption (VO2) was plotted at each exercise intensity. That is, for example, an exercise intensity of 50% HR is calculated by the following equation: 100×(x−Resting heart rate)/(Maximum heart rate−Resting heart rate)=50% HR, and the oxygen consumption (VO2) in which the heart rate is the “x” means “oxygen consumption (VO2) at an exercise intensity of 50% HR”. Oxygen consumption efficiency was calculated by the following equation. Oxygen consumption efficiency (VO2/VE)=oxygen consumption/ventilation The oxygen uptake efficiency slope (OUES) was calculated using the ventilation and VO2 every 1 min from the beginning of the incremental loading exercise. Specifically, a graph of linearity was obtained by plotting “logarithmic value of ventilation (VE)” on the horizontal axis and “VO2” on the vertical axis, and the slope of the linear function graph was defined as OUES. For details, see Non-Patent Document 5. Exercise intensity (% HR) and rating of perceived exertion (RPE) at the oxygen consumption (VO2) of 14 mL/min/kg and 24.5 mL/min/kg in incremental loading exercise (the levels of stair climbing and jogging, respectively) were evaluated. The calculation methods for oxygen consumption (VO2) and exercise intensity (% HR) are the same as those described above. The perceived exertion was rated by the subject according to the following table at 1-minute intervals from the beginning of the incremental loading exercise, and the scales rated by each subject were averaged to give the rating of perceived exertion (RPE).
# [1] = at oxygen consumption (VO2) of 14 and 24.5 mL/min/kg (stair climbing and jogging levels), single and consecutive ingestion
# [2] = single ingestion and consecutive ingestion
structure (smiles),measurement,setting,value
O=c1c(O)c(-c2ccc(O)cc2)oc2cc(O)cc(O)c12 [kaempferol],mean time change between the 1st and 2nd 400 m runs,healthy male adults,-0.77 s
same,oxygen consumption (VO2),"healthy adult males; at all exercise intensities (50%, 60%, 70%, 80%, 90%, and 100% HR), single ingestion and consecutive ingestion (8 days), 2.5, 10 or 25 mg kaempferol cookie",increased
same,exercise intensity (% HR),healthy adult males; [1],decreased
same,rating of perceived exertion (RPE),healthy adult males; [1],decreased
same,maximum exercise load (Pedal Weight (watt)),healthy adult males; [2],increased
same,maximum oxygen consumption (VO2peak),healthy adult males; [2],increased
same,oxygen consumption efficiency (VO2/VE),healthy adult males; [2],increased
same,oxygen uptake efficiency slope (OUES),healthy adult males; [2],increased
